{
  "source": "patent US20120255051A1",
  "about": "“HERBICIDE TOLERANT PLANTS” (priority 2009, published 2012)",
  "test_system": "Brassica plants comprising mutant AHAS alleles",
  "assay": "Field trial, pre-planting treatment (0, 10, 20, 30 g a.i./ha), two locations in Canada: ERG, EST1, EST2, PPTOX, VIG1, VIG2, VIG3 scores",
  "format": "in vivo, Brassica napus",
  "conditions": "for establishment (EST2) score, Av / phytotoxicity (PPTOX) score, Av / vigor1 (VIG1) score, Av / vigor2 (VIG2) score, Av: AHAS1 HETO108/AHAS3 HETO104",
  "source_text": "Tests were set up and conducted to asses the growth and performance of plants comprising AHAS full knock-out alleles, and to further analyze the correlation between the presence of full knockout and missense AHAS genes in Brassica plants and plant growth and herbicide tolerance of the Brassica plants in the field. To this end, the Brassica plants identified in Example 1 and 2 were backcrossed two times with an elite parent line, and subsequently selfed twice to obtain homozygous plants (BC2S2). Plants were grown as row plots in a split plot design with three replicates (main plots=herbicide treatments, subplots=genotypes) at two locations in Canada. Treatment pre-planting was carried out on the soil about two days before sowing with a dose of 0 (treatment A), 10 (treatment B), 20 (treatment C) or 30 (treatment D) g a.i./ha of thiencarbazone methyl. Herbicide tolerance was measured by scoring for different parameters. The parameter emergence (ERG) was scored at the cotyledon stage on a scale 1-9, where 1 means late emergence and 9 means early emergence. Establishment was scored 14 days after sowing (EST1) and 21 days after sowing (EST2). Scores were from 1 to 9, where 1 is the worst establishment (least plants that emerged), and 9 is the best establishment (most plants emerged). Phytotoxicity (PPTOX) was determined after establishment. Plants were evaluated on a scale of 1 to 9, where 1=completely yellowing, 5=50% of plant is yellow and 9=no yellowing. The vigor scores (see above) were determined at 1-2 leaf stage (VIG1), 7 days after VIG1 (VIG2) and 14 days after VIG1 (VIG3). The average values (Av) and standard deviations (SD) of the scores for the different parameters are represented in Table 7a-g.\nFurther, the contribution of the knock-out allele to herbicide tolerance conferred by the missense allele was calculated. First, the scores were corrected for a possible effect of the growth per se, independent of herbicide treatment. To this end, the scores for treatments B, C and D were divided by the scores for treatment A for the same genotype and for the same parameter (corrected herbicide tolerance scores). Next, the effect of the knock-out allele to these corrected herbicide tolerance scores obtained by the missense allele was calculated. Therefore, the corrected herbicide tolerance scores for the missense—knock-out allele combination was divided by the corrected herbicide tolerance scores for the missense allele—wild-type combination. In case the knock-out allele has no effect on herbicide tolerance conferred by the missense allele, this ratio should be 1. In case the knock-out allele positively contributes to the herbicide tolerance conferred by the missense allele, this ratio should be higher than 1. The results for the contribution of the knock-out allele to herbicide tolerance conferred by the missense allele as calculated above are shown in table 8.",
  "key": {"[1]": {"conditions": "AHAS1 HETO108, AHAS3 HETO104, treatment B 10 g a.i./ha pre-planting, Location A"}, "[2]": {"conditions": "AHAS1 HETO108, AHAS3 HETO104, treatment B 10 g a.i./ha pre-planting, Location B"}, "[3]": {"conditions": "AHAS1 HETO108, AHAS3 HETO104, treatment C 20 g a.i./ha pre-planting, Location A"}, "[4]": {"conditions": "AHAS1 HETO108, AHAS3 HETO104, treatment C 20 g a.i./ha pre-planting, Location B"}, "[5]": {"conditions": "AHAS1 HETO108, AHAS3 HETO104, treatment D 30 g a.i./ha pre-planting, Location A"}, "[6]": {"conditions": "AHAS1 HETO108, AHAS3 HETO104, treatment D 30 g a.i./ha pre-planting, Location B"}, "[7]": {"conditions": "AHAS1 HETO108, AHAS3 HETO111, treatment B 10 g a.i./ha pre-planting, Location A"}, "[8]": {"conditions": "AHAS1 HETO108, AHAS3 HETO111, treatment B 10 g a.i./ha pre-planting, Location B"}, "[9]": {"conditions": "AHAS1 HETO108, AHAS3 HETO111, treatment C 20 g a.i./ha pre-planting, Location A"}, "[10]": {"conditions": "AHAS1 HETO108, AHAS3 HETO111, treatment C 20 g a.i./ha pre-planting, Location B"}, "[11]": {"conditions": "AHAS1 HETO108, AHAS3 HETO111, treatment D 30 g a.i./ha pre-planting, Location A"}, "[12]": {"conditions": "AHAS1 HETO108, AHAS3 HETO111, treatment D 30 g a.i./ha pre-planting, Location B"}, "[13]": {"conditions": "AHAS1 HETO108, AHAS3 WT (HETO108+HETO104 series), treatment B 10 g a.i./ha pre-planting, Location A"}, "[14]": {"conditions": "AHAS1 HETO108, AHAS3 WT (HETO108+HETO104 series), treatment B 10 g a.i./ha pre-planting, Location B"}, "[15]": {"conditions": "AHAS1 HETO108, AHAS3 WT (HETO108+HETO104 series), treatment C 20 g a.i./ha pre-planting, Location A"}, "[16]": {"conditions": "AHAS1 HETO108, AHAS3 WT (HETO108+HETO104 series), treatment C 20 g a.i./ha pre-planting, Location B"}, "[17]": {"conditions": "AHAS1 HETO108, AHAS3 WT (HETO108+HETO104 series), treatment D 30 g a.i./ha pre-planting, Location A"}, "[18]": {"conditions": "AHAS1 HETO108, AHAS3 WT (HETO108+HETO104 series), treatment D 30 g a.i./ha pre-planting, Location B"}, "[19]": {"conditions": "AHAS1 HETO108, AHAS3 WT (HETO108+HETO111 series), treatment B 10 g a.i./ha pre-planting, Location A"}, "[20]": {"conditions": "AHAS1 HETO108, AHAS3 WT (HETO108+HETO111 series), treatment B 10 g a.i./ha pre-planting, Location B"}, "[21]": {"conditions": "AHAS1 HETO108, AHAS3 WT (HETO108+HETO111 series), treatment C 20 g a.i./ha pre-planting, Location A"}, "[22]": {"conditions": "AHAS1 HETO108, AHAS3 WT (HETO108+HETO111 series), treatment C 20 g a.i./ha pre-planting, Location B"}, "[23]": {"conditions": "AHAS1 HETO108, AHAS3 WT (HETO108+HETO111 series), treatment D 30 g a.i./ha pre-planting, Location A"}, "[24]": {"conditions": "AHAS1 HETO108, AHAS3 WT (HETO108+HETO111 series), treatment D 30 g a.i./ha pre-planting, Location B"}, "[25]": {"conditions": "10 g a.i./ha pre-planting (B), Location A"}, "[26]": {"conditions": "10 g a.i./ha pre-planting (B), Location B"}, "[27]": {"conditions": "20 g a.i./ha pre-planting (C), Location A"}, "[28]": {"conditions": "20 g a.i./ha pre-planting (C), Location B"}},
  "data": [
    {"smiles": "COC(=O)c1csc(C)c1S(=O)(=O)NC(=O)n1nc(OC)n(C)c1=O", "note": "[thiencarbazone-methyl, methyl 4-[(4,5-dihydro-3-methoxy-4-methyl-5-oxo-1H-1,2,4-triazol-1-yl)carbonylsulfamoyl]-5-methylthiophene-3-carboxylate]", "values": [
      {"measurement": "emergence (ERG) score Av", "setting": "[1]", "result": 6.00},
      {"measurement": "establishment (EST1) score Av, 14 days after sowing", "setting": "[1]", "result": 6.33},
      {"measurement": "emergence (ERG) score Av", "setting": "[2]", "result": 4.00},
      {"measurement": "establishment (EST1) score Av, 14 days after sowing", "setting": "[2]", "result": 5.00},
      {"measurement": "emergence (ERG) score Av", "setting": "[3]", "result": 4.00},
      {"measurement": "establishment (EST1) score Av, 14 days after sowing", "setting": "[3]", "result": 4.00},
      {"measurement": "emergence (ERG) score Av", "setting": "[4]", "result": 5.00},
      {"measurement": "establishment (EST1) score Av, 14 days after sowing", "setting": "[4]", "result": 5.00},
      {"measurement": "emergence (ERG) score Av", "setting": "[5]", "result": 5.00},
      {"measurement": "establishment (EST1) score Av, 14 days after sowing", "setting": "[5]", "result": 5.00},
      {"measurement": "emergence (ERG) score Av", "setting": "[6]", "result": 4.67},
      {"measurement": "establishment (EST1) score Av, 14 days after sowing", "setting": "[6]", "result": 5.33},
      {"measurement": "emergence (ERG) score Av", "setting": "[7]", "result": 5.33},
      {"measurement": "establishment (EST1) score Av, 14 days after sowing", "setting": "[7]", "result": 6.00},
      {"measurement": "emergence (ERG) score Av", "setting": "[8]", "result": 4.33},
      {"measurement": "establishment (EST1) score Av, 14 days after sowing", "setting": "[8]", "result": 6.00},
      {"measurement": "emergence (ERG) score Av", "setting": "[9]", "result": 4.67},
      {"measurement": "establishment (EST1) score Av, 14 days after sowing", "setting": "[9]", "result": 5.33},
      {"measurement": "emergence (ERG) score Av", "setting": "[10]", "result": 5.00},
      {"measurement": "establishment (EST1) score Av, 14 days after sowing", "setting": "[10]", "result": 5.67},
      {"measurement": "emergence (ERG) score Av", "setting": "[11]", "result": 5.00},
      {"measurement": "establishment (EST1) score Av, 14 days after sowing", "setting": "[11]", "result": 5.33},
      {"measurement": "emergence (ERG) score Av", "setting": "[12]", "result": 4.33},
      {"measurement": "establishment (EST1) score Av, 14 days after sowing", "setting": "[12]", "result": 3.67},
      {"measurement": "emergence (ERG) score Av", "setting": "[13]", "result": 6.67},
      {"measurement": "establishment (EST1) score Av, 14 days after sowing", "setting": "[13]", "result": 6.67},
      {"measurement": "emergence (ERG) score Av", "setting": "[14]", "result": 4.33},
      {"measurement": "establishment (EST1) score Av, 14 days after sowing", "setting": "[14]", "result": 4.67},
      {"measurement": "emergence (ERG) score Av", "setting": "[15]", "result": 5.00},
      {"measurement": "establishment (EST1) score Av, 14 days after sowing", "setting": "[15]", "result": 5.00},
      {"measurement": "emergence (ERG) score Av", "setting": "[16]", "result": 4.33},
      {"measurement": "establishment (EST1) score Av, 14 days after sowing", "setting": "[16]", "result": 4.67},
      {"measurement": "emergence (ERG) score Av", "setting": "[17]", "result": 4.67},
      {"measurement": "establishment (EST1) score Av, 14 days after sowing", "setting": "[17]", "result": 4.67},
      {"measurement": "emergence (ERG) score Av", "setting": "[18]", "result": 5.00},
      {"measurement": "establishment (EST1) score Av, 14 days after sowing", "setting": "[18]", "result": 5.33},
      {"measurement": "emergence (ERG) score Av", "setting": "[19]", "result": 6.33},
      {"measurement": "establishment (EST1) score Av, 14 days after sowing", "setting": "[19]", "result": 6.33},
      {"measurement": "emergence (ERG) score Av", "setting": "[20]", "result": 4.33},
      {"measurement": "establishment (EST1) score Av, 14 days after sowing", "setting": "[20]", "result": 5.33},
      {"measurement": "emergence (ERG) score Av", "setting": "[21]", "result": 5.33},
      {"measurement": "establishment (EST1) score Av, 14 days after sowing", "setting": "[21]", "result": 6.00},
      {"measurement": "emergence (ERG) score Av", "setting": "[22]", "result": 5.00},
      {"measurement": "establishment (EST1) score Av, 14 days after sowing", "setting": "[22]", "result": 5.67},
      {"measurement": "emergence (ERG) score Av", "setting": "[23]", "result": 5.00},
      {"measurement": "establishment (EST1) score Av, 14 days after sowing", "setting": "[23]", "result": 5.33},
      {"measurement": "emergence (ERG) score Av", "setting": "[24]", "result": 3.33},
      {"measurement": "establishment (EST1) score Av, 14 days after sowing", "setting": "[24]", "result": 3.67},
      {"measurement": "establishment (EST2) score, Av", "setting": "[25]", "result": 6.33},
      {"measurement": "phytotoxicity (PPTOX) score, Av", "setting": "[25]", "result": 6.00},
      {"measurement": "vigor1 (VIG1) score, Av", "setting": "[25]", "result": 6.33},
      {"measurement": "vigor2 (VIG2) score, Av", "setting": "[25]", "result": 7.33},
      {"measurement": "establishment (EST2) score, Av", "setting": "[26]", "result": 5.00},
      {"measurement": "vigor2 (VIG2) score, Av", "setting": "[26]", "result": 5.00},
      {"measurement": "establishment (EST2) score, Av", "setting": "[27]", "result": 4.33},
      {"measurement": "vigor1 (VIG1) score, Av", "setting": "[27]", "result": 5.00},
      {"measurement": "vigor2 (VIG2) score, Av", "setting": "[27]", "result": 6.00},
      {"measurement": "establishment (EST2) score, Av", "setting": "[28]", "result": 5.00},
      {"measurement": "phytotoxicity (PPTOX) score, Av", "setting": "[28]", "result": 6.00},
      {"measurement": "vigor1 (VIG1) score, Av", "setting": "[28]", "result": 5.00}
    ]}
  ]
}
